Experimental data from patent US7557129B2, “Cyanopyridine derivatives useful in the treatment of cancer and other disorders” (Bayer Healthcare LLC, priority 2003, dated 2009).

| melting point | SMILES |
| --- | --- |
| 209 to 210.5 °C | N#Cc1cc(Oc2ccc(NC(=O)Nc3cc(C(F)(F)F)ccn3)c(C(F)(F)F)c2)ccn1 [Entry 150, {[4-(2-cyano(4-pyridyloxy))-2-(trifluoromethyl)phenyl]amino}-N-[4-(trifluoromethyl)(2-pyridyl)]carboxamide] |
| 216 to 217 °C | CC(C)(C)c1ccnc(NC(=O)Nc2ccc(Oc3ccnc(C#N)c3)cc2)c1 [Entry 143, N-[4-(tert-butyl)(2-pyridyl)]{[4-(2-cyano(4-pyridyloxy))phenyl]amino}carboxamide] |
| 239 to 240 °C | Cn1ncc2cc(NC(=O)Nc3ccc(Oc4ccnc(C#N)c4)cc3C(F)(F)F)ccc21 [Entry 165, {[4-(2-cyano(4-pyridyloxy))-2-(trifluoromethyl)phenyl]amino}-N-(1-methyl(1H-indazol-5-yl))carboxamide] |
| 192 to 193 °C | N#Cc1cc(Oc2ccc(NC(=O)Nc3ccnc(C(F)(F)F)c3)c(F)c2)ccn1 [Entry 142, {[4-(2-cyano(4-pyridyloxy))-2-fluorophenyl]amino}-N-[2-(trifluoromethyl)(4-pyridyl)]carboxamide] |
| 218 to 220 °C | N#Cc1cc(Oc2ccc(NC(=O)Nc3cc4ccccc4cn3)c(F)c2)ccn1 [Entry 160, {[4-(2-cyano(4-pyridyloxy))-2-fluorophenyl]amino}-N-(3-isoquinolyl)carboxamide] |
| 245.5 °C | Cc1ccc2cc(NC(=O)Nc3ccc(Oc4ccnc(C#N)c4)cc3)ccc2n1 [Entry 154, {[4-(2-cyano(4-pyridyloxy))phenyl]amino}-N-(2-methyl(6-quinolyl))carboxamide] |
| 208 to 212 °C | N#Cc1cc(Oc2ccc(NC(=O)Nc3cc4ccccc4cn3)cc2)ccn1 [Entry 159, {[4-(2-cyano(4-pyridyloxy))phenyl]amino}-N-(3-isoquinolyl)carboxamide] |
| 209 to 210 °C | CCc1ccnc(NC(=O)Nc2ccc(Oc3ccnc(C#N)c3)cc2)c1 [Entry 153, {[4-(2-cyano(4-pyridyloxy))phenyl]amino}-N-(4-ethyl(2-pyridyl))carboxamide] |
| 202 °C | N#Cc1cc(Oc2ccc(NC(=O)Nc3cc(C(F)(F)F)ccn3)cc2)ccn1 [Entry 152, {[4-(2-cyano(4-pyridyloxy))phenyl]amino}-N-[4-(trifluoromethyl)(2-pyridyl)]carboxamide] |

Continued, compound first:

| SMILES | melting point |
| --- | --- |
| CS(=O)(=O)c1cc(Oc2ccnc(C#N)c2)ccc1NC(=O)Nc1ccc2c(c1)C(F)(F)OC(F)(F)O2 [Entry 141, {[4-(2-cyano(4-pyridyl)oxy)-2-(methylsulfonyl)phenyl]amino}-N-(2,2,4,4-tetrafluorobenzo[3,4-e]1,3-dioxan-6-yl)carboxamide] | 229 to 230 °C |
| N#Cc1cc(Oc2ccc(NC(=O)Nc3ccc4c(c3)C(F)(F)OC(F)(F)O4)c(F)c2F)ccn1 [Entry 129, {[4-(2-cyano(4-pyridyloxy))-2,3-difluorophenyl]amino}-N-(2,2,4,4-tetrafluorobenzo[3,4-e]1,3-dioxan-6-yl)carboxamide] | 181 to 182 °C |
| N#Cc1cc(Oc2ccc(NC(=O)Nc3ccc4c(c3)C(F)(F)OC(F)(F)O4)c(C(F)(F)F)c2)ccn1 [Entry 128, {[4-(2-cyano(4-pyridyloxy))-2-(trifluoromethyl)phenyl]amino}-N-(2,2,4,4-tetrafluorobenzo[3,4-e]1,3-dioxan-6-yl)carboxamide] | 220 to 221 °C |
| N#Cc1cc(Oc2ccc(NC(=O)Nc3ccc4c(c3)OC(F)(F)O4)cc2F)ccn1 [Entry 113, N-(2,2-difluorobenzo[d]1,3-dioxolan-5-yl){[4-(2-cyano(4-pyridyloxy))-3-fluorophenyl]amino}carboxamide] | 193.5 to 194.5 °C |
| N#Cc1cc(Oc2ccc(NC(=O)Nc3ccc4c(c3)C(F)(F)OC(F)(F)O4)cc2F)ccn1 [Entry 127, {[4-(2-cyano(4-pyridyloxy))-3-fluorophenyl]amino}-N-(2,2,4,4-tetrafluorobenzo[3,4-e]1,3-dioxan-6-yl)carboxamide] | 196 to 199.5 °C |
| N#Cc1cc(Oc2ccc(NC(=O)Nc3ccc4c(c3)C(F)(F)OC(F)(F)O4)c(F)c2)ccn1 [Entry 124, {[4-(2-cyano(4-pyridyloxy))-2-fluorophenyl]amino}-N-(2,2,4,4-tetrafluorobenzo[3,4-e]1,3-dioxan-6-yl)carboxamide] | 169 to 171 °C |
| N#Cc1cc(Oc2ccc(NC(=O)Nc3ccc4c(c3)OC(F)(F)O4)cc2)ccn1 [Entry 109, N-(2,2-difluorobenzo[d]1,3-dioxolan-5-yl){[4-(2-cyano(4-pyridyloxy))phenyl]amino}carboxamide] | 199 to 200 °C |
| CSc1cc(Oc2ccnc(C#N)c2)ccc1NC(=O)Nc1ccc2c(c1)C(F)(F)OC(F)(F)O2 [Entry 140, {[4-(2-cyano(4-pyridyl)oxy)-2-methylthiophenyl]amino}-N-(2,2,4,4-tetrafluorobenzo[3,4-e]1,3-dioxan-6-yl)carboxamide] | 183 to 185 °C |
